Values after ≈ are worked out from the molar mass of the structure shown.
How the values were obtained:
MRSA ATCC 43300 [1] = experiment: Post-antibiotic effect (PAE); type: cell-based, Staphylococcus aureus
Procedure: PAE has been considered as pharmacodynamic assistance which provides a reference for the rational formulation of dosing regimen. PAE refers to the temporary suppression of bacterial growth following transient antibiotic treatment. PAE assays were conducted for compounds 12c and 22c.
PAE is calculated from growth curves on the difference in time required for the number (1 log10 CFU/mL) of drug-exposed and unexposed microbes. […] The PAE values of compounds 12c and 22c increased with increasing incubation time.
PAE of compounds 12c and 22c on MRSA ATCC 43300 was determined using MH broth according to our previous work. The final concentration of MRSA was 1 × 10^6 CFU/mL by dilution with MH broth. Compounds 12c, 22c and tiamulin were supplemented in the suspension at a final concentration of 2 × MIC and 4 × MIC, respectively. The negative control group contained untreated MRSA bacterial cells. The test tubes were incubated with a 37 °C constant temperature vibration incubator for 1 and 2 h. After incubation, the test compound was removed from the sample by diluting 1000-fold with the preheated MH broth. Next, 100 μL of suspension from each culture was 10-fold diluted in sterile saline and inoculated on MH agar plates at 0, 2, 4, 6 and 8 h after inoculation. The number of colonies was calculated after incubation at 37 °C for 24 h. The experiments were performed in triplicate.

16-HBE cells = experiment: Cytotoxicity MTT assay; type: cell-based, human; details: 1~8 μg/mL, 16 h
Procedure: (§1) The presence of compounds can influence cellular basic physiological processes, suppress proliferation and even reduce cell survival, etc. In the community, MRSA generally causes respiratory infection. Therefore, cytotoxicity was evaluated to explore the effect of compounds 12c and 22c on the viability of the respiratory tract cells 16-HBE (human bronchial epithelial cell line). RAW 264.7 (mouse peritoneal macrophage cell line) and Caco-2 (human epithelial colorectal adenocarcinoma cell line) were also used to evaluate the cytotoxicity of compounds 12c and 22c by MTT assay.
(§2) Cytotoxicity of the test compounds was assessed using the conventional MTT method. RAW 264.7 murine macrophage cells, Caco-2 cells and 16-HBE were used in this experiment. The cells were seeded into 96-well plates at a density of 1.0 × 10^5 cells per well. After 4 h at 37 °C, the cells were treated with compounds 12c and 22c at various concentrations and incubated at 37 °C for 16 h. Next, MTT (0.5 mg/mL in PBS, 100 μL/well) was added sequentially to each well in a humidified atmosphere of 95% air and 5% CO2 incubator and the incubation continued for an additional four hours. After incubation, the medium was peeled off and DMSO (150 μL/well) was added to dissolve the cells, and then the incubation was continued for 30 min. At the end of this period, the absorbance was measured at 490 nm by a microplate spectrophotometer (BIO-TEK Instruments, Winooski, VT, USA).

Caco-2 cells = experiment: Cytotoxicity MTT assay; type: cell-based, human; details: 1~8 μg/mL, 16 h
Procedure: as §1, §2

MRSA ATCC 43300 [2] = experiment: Neutropenic murine thigh infection model; type: in vivo; details: neutropenic mice, 20 mg/kg, 24 h after dosing, n = 6/group
Procedure: Therefore, the in vivo efficacy of compounds 12c and 22c were assessed using the murine neutropenic thigh infection model. Mice groups treated with saline and tiamulin were chosen as the negative and positive controls.
Model experiments of neutropenic mouse thigh infection were manipulated as described in the literature. Female, six-week-old, specific-pathogen-free mice weighing approximately 23~26 g were used throughout the study. Mice were rendered neutropenic by injection of cyclophosphamide (Mead Johnson Pharmaceuticals, Evansville, IN) on day 4 (150 mg/kg) and day 1 (100 mg/kg) before the experiment. The neutrophil numbers in mice blood should be <0.1 × 10^9/L [34]. In total, 0.1 mL of MH broth of MRSA (10^7 CFU/mL) was inoculated into each thigh of the neutropenic mice. Mice were divided into 4 groups (6 mice per group), including control (sterile saline), compounds 12c, 22c and tiamulin groups. After 3 h post-infection, the corresponding drugs were injected into each mouse’s thigh. Mice were euthanized following intravenous injection for 24 h. Thigh tissue of each mouse was removed, collected, weighed and homogenized in 3 mL of ice sterile saline. Six ten-fold serial dilutions were performed and 25 μL of the bacterial solution from each tube was plated on MH agar plates. The resulting colonies were counted after 24 h incubation at 37 °C. The protocol for this study was reviewed and approved by the Institutional Animal Care and Use Committee of the South China Agricultural University.

MRSA ATCC 43300 [3] = experiment: MIC/MBC by broth dilution (CLSI); type: cell-based, Staphylococcus aureus; details: for MBC / MIC: Staphylococcus aureus; for MBC: MRSA ATCC 43300, 99.9% of the bacteria killed; for MIC: MRSA ATCC 43300, broth dilution, 24 h, 37 °C, read-out: MIC; for MBC/MIC ratio: against MRSA
Procedure: (§3) The in vitro antimicrobial activity of the pleuromutilin derivatives was assessed against MRSA ATCC 43300, S. aureus ATCC 29213, S. aureus 144 and S. aureus AD3 according to the Clinical and Laboratory Standards Institute (CLSI). Tiamulin was used as a positive control drug. The results were summarized as the minimum inhibitory concentration (MIC) and the minimum bactericidal concentration (MBC) in Table 1 and Table 2. In addition, MIC results for the pleuromutilin derivatives against four Gram-negative bacteria are supplied in Tables S2 and S3.
(§4) The MIC and MBC values of the synthesized novel pleuromutilin derivatives against MRSA ATCC 43300, S. aureus ATCC 29213, S. aureus 144 and S. aureus AD3 were measured. Tiamulin was used as a positive control drug. The MIC and MBC values were manipulated by broth dilution according to the Clinical and Laboratory Standards (CLSI). Each compound to be measured was dissolved in a solution of 95% deionized water, 2.5% dimethyl sulfoxide (DMSO) and 2.5% Tween-80 with a concentration of 1280 µg/mL. Subsequently, serial twofold dilutions were made in a concentration range from 64 µg/mL to 0.0625 µg/mL. The working bacterial suspension was inoculated into each well, which provided the final inoculum density of 5 × 10^5 CFU/mL. Three parallel experiments were performed for each compound.
(§5) Overall, 25 µL of the bacterial solution from the wells with no obvious bacterial growth was inoculated on MH agar plates. Then, the inoculated MH agar plates were further cultured at 37 °C for 24 h.

S. aureus ATCC 29213 = experiment: MIC/MBC by broth dilution (CLSI); type: cell-based; details: Staphylococcus aureus, ATCC29213; for MBC: S. aureus ATCC 29213; for MIC: S. aureus ATCC 29213, broth dilution, 24 h, 37 °C
Procedure: as §3, §4, §5

S. aureus AD3 = experiment: MIC/MBC by broth dilution (CLSI); type: cell-based; details: Staphylococcus aureus; S. aureus AD3 (clinical strain)
Procedure: as §3, §4, §5

S. aureus 144 = experiment: MIC/MBC by broth dilution (CLSI); type: cell-based; details: Staphylococcus aureus; S. aureus 144 (clinical strain)
Procedure: as §3, §4, §5

MRSA ATCC 43300 [4] = experiment: Constant concentration time–kill curves; type: cell-based, Staphylococcus aureus; details: for type of bactericidal kinetics: time–kill curves, 1 to 32 × MIC
Procedure: Time–kill kinetic assays were performed, which were used to investigate the in vitro bactericidal kinetic effect of compounds 12c, 19c, 22c and tiamulin.
Time–kill curve assays were established with the MIC value to investigate the antibacterial effect of constant drug concentration on MRSA. […] MRSA ATCC 43300 was incubated in MH broth at 37 °C for 4.5 h and diluted to 1 × 10^6 CFU/mL in MH broth. The saline control group was subjected to the same schedule but 0.9% saline water was added instead of the test compound. All the samples were incubated in an oscillating thermostatic at 37 °C, and then 100 μL of the mixture was extracted to 900 μL of sterile saline (0.9%) at 0, 3, 6, 9, 12 and 24 h, respectively. Samples were serially diluted 10-fold in sterile saline (0.9%) and inoculated onto agar plates. The colonies were counted after incubation at 37 °C for 24 h. Three independent experiments were performed according to our previous work. Time–kill curves were constructed by plotting the log10 CFU per millilitre versus time, and the change in bacterial concentration was determined.

melting point [°C] | MIC (MRSA ATCC 43300 [3]) [µg/mL] | MBC/MIC ratio (MRSA ATCC 43300 [3]) | MIC (S. aureus ATCC 29213) [µg/mL] | MIC (S. aureus AD3) [µg/mL] | MIC (S. aureus 144) [µg/mL] | SMILES | PAE (MRSA ATCC 43300 [1]; 2 × MIC, exposure for 1 h) [h] | PAE (MRSA ATCC 43300 [1]; 2 × MIC, exposure for 2 h) [h] | PAE (MRSA ATCC 43300 [1]; 4 × MIC, exposure for 1 h) [h] | PAE (MRSA ATCC 43300 [1]; 4 × MIC, exposure for 2 h) [h] | reduction of MRSA load in thigh vs growth control (MRSA ATCC 43300 [2]) [log10 CFU/mL] | MBC (MRSA ATCC 43300 [3]) [µg/mL] | MBC (S. aureus ATCC 29213) [µg/mL] | MBC (S. aureus AD3) [µg/mL] | MBC (S. aureus 144) [µg/mL] | MRSA killed in time–kill assay (MRSA ATCC 43300 [4]; 2 × MIC, 24 h incubation) [%] | reduction of MRSA in time–kill assay (MRSA ATCC 43300 [4]; 2 × MIC, 24 h incubation) [log10 CFU/mL] | reduction of MRSA in time–kill assay (MRSA ATCC 43300 [4]; 4 × MIC) [log10 CFU/mL] | type of bactericidal kinetics (MRSA ATCC 43300 [4]) | further results
95 to 97 | 0.25 (≈ 0.343 µM) | ≤ 2 | 0.25 (≈ 0.343 µM) | 0.125 (≈ 0.172 µM) | 0.5 (≈ 0.686 µM) | C=C[C@]1(C)C[C@@H](OC(=O)CSc2ccc(Nc3nc(Cl)nc4c3cnn4-c3cccc(C)c3)cc2)[C@]2(C)[C@H](C)CC[C@]3(CCC(=O)[C@H]32)[C@@H](C)[C@@H]1O [Compound 12c, 22-[4-(6-Chloro-1-(3-methylphenyl)-1H-pyrazolo[3,4-d]pyrimidine-4-yl)amino-Phenylsulfanyl]-22-deoxypleuromutilin] | 0.37 | 1.72 | 0.43 | 1.73 | −0.79 | 0.5 (≈ 0.686 µM) | 0.5 (≈ 0.686 µM) | 0.25 (≈ 0.343 µM) | 1 (≈ 1.37 µM) | 99.99 | −4.51 | −5.76 | time-dependent | effect on viability of 16-HBE cells (16-HBE cells): did not affect the viability; effect on viability of Caco-2 cells (Caco-2 cells): did not affect the viability
141 to 144 | 0.25 (≈ 0.341 µM) | ≤ 2 | 0.25 (≈ 0.341 µM) | 0.25 (≈ 0.341 µM) | 1 (≈ 1.37 µM) | C=C[C@]1(C)C[C@@H](OC(=O)CSc2ccc(Nc3nc(Cl)nc4c3cnn4-c3ccc(F)cc3)cc2)[C@]2(C)[C@H](C)CC[C@]3(CCC(=O)[C@H]32)[C@@H](C)[C@@H]1O [Compound 19c, 22-[4-(6-Chloro-1-(4-fluorophenyl)-1H-pyrazolo[3,4-d]pyrimidine-4-yl)amino-Phenylsulfanyl]-22-deoxypleuromutilin] |  |  |  |  |  | 0.5 (≈ 0.683 µM) | 0.5 (≈ 0.683 µM) | 1 (≈ 1.37 µM) | 2 (≈ 2.73 µM) | 99.9 | −3.57 | −5.16 | time-dependent | 
 | 0.5 (≈ 1.01 µM) |  | 1 (≈ 2.03 µM) | 1 (≈ 2.03 µM) | 1 (≈ 2.03 µM) | C=C[C@]1(C)C[C@@H](OC(=O)CSCCN(CC)CC)[C@]2(C)[C@H](C)CC[C@]3(CCC(=O)[C@H]32)[C@@H](C)[C@@H]1O [Tiamulin, tiamulin, reference compound] | 0.27 | 1.23 | 0.42 | 1.31 | −0.56 | 1 (≈ 2.03 µM) | 1 (≈ 2.03 µM) | 2 (≈ 4.05 µM) | 2 (≈ 4.05 µM) | 99.9 | −3.78 |  | time-dependent | 

From paper PMC10180054, “Design, Synthesis and Biological Evaluation of Novel Pleuromutilin Derivatives Containing 6-Chloro-1-R-1H-pyrazolo[3,4-d]pyrimidine-4-amino Side Chain” (Molecules, 2023)
